According to US11040958B2, “Triazole antimicrobial derivative, pharmaceutical composition and use thereof” (priority 2017, dated 2021):
Like-named read-outs stand apart in the source and are kept apart here.

Experiments:
[1] = In vitro metabolic stability in rat intestinal S9; type: in vitro ADME; settings: 37°C, S9 1 mg/mL, compound 10 μM, NADPH regeneration system
Experimental: (§1) The two reaction systems were set up three samples in parallel, while each sample was taken in an amount of 100 μL at 1 min, 2 mins, 5 mins, 15 mins, and 30 mins after the reaction, added to the centrifuge tube containing 400 μL of 0° C. pre-cooled internal standard working fluid and terminated the reaction. The sample was mixed by vortex for 1 min, centrifuged at 10,000×g for 10 mins in a 4° C. pre-cooled high-speed centrifuge. The supernatant was taken for HPLC detection. […] Concentration of mother liquor of compounds: 1 mM […] [table]

[2] = Solubility test in deionized water (HPLC, external calibration); type: physicochemical; settings: for solubility at 30 min: 25 °C, thermodynamic from solid
Experimental: Experimental condition: 25±2° C.
Dissolving medium: deionized water
Experimental method: 1 mg voriconazole and appropriate amount of each compound were weighed, placed in 1 ml deionized water separately, shaken vigorously for 30 s every 5 mins for 30 mins.

[3] = In vitro metabolic stability in human intestinal S9; type: in vitro ADME; settings: 37°C, S9 1 mg/mL, compound 10 μM, NADPH regeneration system
Experimental: as §1

[4] = In vitro metabolic stability in rat plasma; type: in vitro ADME; settings: 37°C, compound 10 μM
Experimental: The two reaction systems were set up three samples in parallel, while each sample was taken in an amount of 100 μL at 1 min, 2 mins, 5 mins, 15 mins, and 30 mins after the reaction, added to the centrifuge tube containing 400 μL of 0° C. pre-cooled internal standard working fluid and terminated the reaction. The sample was mixed by vortex for 1 min, centrifuged at 10,000×g for 10 mins in a 4° C. pre-cooled high-speed centrifuge. The supernatant was taken for HPLC detection. […] Concentration of mother liquor of compounds: 1 mM […]

[5] = Solid stability test (25°C, RH 60%, 30 days); type: physicochemical; settings: 25°C±2°C, relative humidity 60%±2%
Experimental: Experimental conditions: 25° C.±2° C., relative humidity 60%±2%
Experimental instrument: Agilent 1260 HPLC; chamber for stability test
Experimental method: each compound of the present disclosure was packaged (the inner packaging material was a penicillin bottle; the outer packaging material was a double-layer aluminum foil bag, and a desiccant was added inside and outside the package), placed in the chamber for stability test, at a temperature of 25° C.±2° C. and a relative humidity of 60%±2%. The degradation situation of the compounds for 30 days was examined. The contents of total impurities before and after 30 days of each compound were compared and the results were as follows: […]

[6] = Pharmacokinetics after single intravenous administration in rats (plasma voriconazole); settings: rat, in vivo, 2.5 mg/kg
Experimental: Dosage for administration: 2.5 mg/kg (calculated as voriconazole)
Dosing volume for administration: 2.5 ml/kg
Drug concentration: 1 mg/mL (calculated as voriconazole)
Route of administration: tail vein injection Experimental animals: SD rats, SPF grade, weighing 180-220 g, half male and half female; the SD rats were randomized into groups of 6 animals each, three males and three females in each group. Experimental method: Blood samples were collected at different time points after tail vein administration, and the plasma concentrations of voriconazole were measured.

[7] = test system: Candida albicans ATCC10231; experiment: Systemic fungal infection in mice, administration by gavage, survival; type: in vivo; settings: ICR mice, 5 mg/kg (calculated as voriconazole) once daily for 5 days
Experimental: (§2) ICR mice, weighing 18-22 g, male, provided by the Hubei Experimental Animal Center.
(§3) The standard strain Candida albicans was purchased from the American Type Culture Collection, and the strain number was ATCC10231.
Before the experiment, a small amount of Candida albicans was picked from the SDA medium preserved at 4° C. by inoculation circle, inoculated into 1 ml of YPD culture medium, and cultured at 30° C. while being shaken at 200 rpm for 16 hours to make the fungus in the late stage of exponential growth. Blood cell counting plate was used to count, and the concentration of the broth was adjusted to 1*10^3−5*10^3 CFU/ml with RPMI1640 medium. The Candida albicans monoclone on the SDA plate was picked, inoculated into 1 ml YPD medium, cultured at 35° C., 200 rpm for 16 hours to the late exponential growth phase, 1% of which was then inoculated in fresh medium for 6 hours, centrifuged at 1000×g for 5 mins, washed three times with saline until the supernatant was colorless, while hemocytometer was used to count. The cell concentration was adjusted to 5*10^6/ml. The tail vein injection of 0.1 ml/10 g was carried out to cause a systemic fungal infection in mice. The mice were randomized into groups of 10 each. Voriconazole used was in the form of a suspension prepared with CMC-Na (Shanghai Panhong Chemical Technology Co., Ltd.), while other tested drugs were dissolved in saline and sonicated until clarified for administration. After establishing a systemic fungal infection model in mice for 2 hours, each group was administered by gavage with 5 mg/kg (calculated as voriconazole) drug, with the volume for administration of 0.1 ml/10 g. The mice in the model group were administered 0.1 ml/10 g of 0.9% sodium chloride solution, once daily, for 5 consecutive days. The death situation of the mice was inspected and the survival time was recorded. After a total of 7 days of observation, all dead mice were treated with fire using ethanol.

[8] = Pharmacokinetics after single gastrointestinal (gavage) administration in rats (plasma voriconazole); type: in vivo; settings: SD rats, 2.5 mg/kg (calculated as voriconazole)
Experimental: Dosing volume for administration: 10 ml/kg
Solvent medium for administration: except for the positive voriconazole group using CMC-Na, the other groups using normal saline
Route of administration: gavage

[9] = test system: Candida albicans ATCC10231; experiment: Systemic fungal infection in mice, intravenous administration, survival; type: in vivo; settings: ICR mice, tail vein, 5 mg/kg (calculated as voriconazole) once daily for 5 days
Experimental: as §2, §3
Before the experiment, a small amount of Candida albicans was picked from the SDA medium preserved at 4° C. by inoculation circle, and inoculated into 1 ml YPD (Yeast Extract Peptone Dextrose Medium, the same below) culture medium, under shake cultivation at 30° C., 200 rpm, activated for 16 hours to make the fungus in the late stage of the exponential growth phase. Blood cell counting plate was used to count. The concentration of the broth was adjusted to 1*10^3-5*10^3 CFU/ml with RPMI1640 (Roswell Park Memorial Institute 1640, the same below) culture medium. The Candida albicans monoclone on the SDA plate was picked and inoculated into 1 ml YPD medium, cultured at 35° C., 200 rpm for 16 hours to the late exponential growth phase, 1% of which was then inoculated in fresh medium for 6 hours, centrifuged at 1000×g for 5 mins, washed three times with saline until the supernatant was colorless, while hemocytometer was used to count. The cell concentration was adjusted to 5*10^6/ml. The tail vein injection of 0.1 ml/10 g was carried out to cause a systemic fungal infection in mice. The mice were randomized into groups of 10 each. Since voriconazole was insoluble in vehicle (physiological saline), the mice of the voriconazole group in the test were injected a commercially available voriconazole (Pfizer, product lot number Z467001), that is, sulfobutyl ether-β-cyclodextrin used as a solubilizer, while other groups used physiological saline as a solvent. After establishing a systemic fungal infection model in mice for 2 hours, each administration group was administered with 5 mg/kg (calculated as voriconazole) drug in the tail vein, with the volume for administration of 0.1 ml/10 g. The mice in the model group were administered 0.1 ml/10 g of 0.9% sodium chloride solution, once daily, for 5 consecutive days. The death situation of the mice was inspected and the survival time was recorded. After a total of 7 days of observation, all dead mice were treated with fire using ethanol.

[10] = In vitro metabolic stability in human plasma; type: in vitro ADME; settings: human, plasma; 37°C, compound 10 μM; read-out: Human plasma T1/2
Experimental: The two reaction systems were set up three samples in parallel, while each sample was taken in an amount of 100 μL at 1 min, 2 mins, 5 mins, 15 mins, and 30 mins after the reaction, added to the centrifuge tube containing 400 μL of 0° C. pre-cooled internal standard working fluid and terminated the reaction. The sample was mixed by vortex for 1 min, centrifuged at 10,000×g for 10 mins in a 4° C. pre-cooled high-speed centrifuge. The supernatant was taken for HPLC detection.

## CC(OC(=O)N(C)c1ncccc1COC(=O)[C@@H](N)CCN)[n+]1cnn(C[C@](O)(c2ccc(F)cc2F)[C@@H](C)c2ncncc2F)c1.[Cl-] (stereo partly shown) [QR16005]
[1]
  Rat intestinal S9 T1/2: 26.52 ± 3.69 min
[2]
  Solubility: >50 mg/mL
[3]
  Human intestinal S9 T1/2: 18.21 ± 2.04 min
[4]
  Rat plasma T1/2: 8.25 ± 1.28 min

## CN[C@@H](CSC(=O)OC(C)[n+]1cnn(C[C@](O)(c2ccc(F)cc2F)[C@@H](C)c2ncncc2F)c1)C(=O)O.Cl.[Cl-] (stereo partly shown) [QR16035]
[1]
  Rat intestinal S9 T1/2: 35.62 ± 8.12 min
[3]
  Human intestinal S9 T1/2: 29.12 ± 2.09 min
[5]
  Content increase of total impurity (25° C., placed for 30 days): 1.21%
[4]
  Rat plasma T1/2: 11.85 ± 3.77 min
[6]
  AUClast: 8256 ± 1256 ng·h/mL

## CC(OC(=O)OCCOCCOP(=O)(O)O)[n+]1cnn(C[C@](O)(c2ccc(F)cc2F)[C@@H](C)c2ncncc2F)c1 (stereo partly shown) [QR16030]
[2]; deionized water, 25±2°C
  Solubility: >50 mg/mL
[7]
  survival rate of mice, day 1: 100%
  survival rate of mice, day 2: 90%
  survival rate of mice, day 3: 80%
  survival rate of mice, day 4: 70%
  survival rate of mice, day 5: 60%
  survival rate of mice, day 6: 50%
[8]
  AUClast: 4324 ± 1362 ng·h/mL
  T1/2: 152 ± 63 min
[5]
  Content increase of total impurity (25° C., placed for 30 days): 0.94%

## CC(OC(=O)N(C)c1ncccc1COC(=O)[C@@H](N)CCCNC(N)=O)[n+]1cnn(C[C@](O)(c2ccc(F)cc2F)[C@@H](C)c2ncncc2F)c1.[Cl-] (stereo partly shown) [QR16009]
[2]; deionized water, 25±2°C
  Solubility: >50 mg/mL
[7]
  survival rate of mice, day 1: 100%
  survival rate of mice, day 2: 80%
  survival rate of mice, day 3: 80%
  survival rate of mice, day 4: 70%
  survival rate of mice, day 5: 70%
  survival rate of mice, day 6: 70%
[7]; day 7
  survival rate of mice, day 7: 70%
[8]
  AUClast: 7225 ± 1310 ng·h/mL
  Cmax: 925 ± 121 ng/mL
  T1/2: 119 ± 52.2 min
[5]
  Content increase of total impurity (25° C., placed for 30 days): 0.71%
[6]
  T1/2: similar

## CC(OC(=O)N(C)c1ccccc1COC(=O)[C@@H](N)CCCN)[n+]1cnn(C[C@](O)(c2ccc(F)cc2F)[C@@H](C)c2ncncc2F)c1.[Cl-] (stereo partly shown) [QR16007]
[2]; deionized water, 25±2°C
  Solubility: >50 mg/mL
[5]
  Content increase of total impurity (25° C., placed for 30 days): 0.73%
[6]
  AUClast: 10278 ± 3225 ng·h/mL
  T1/2: 173 ± 73.2 min
[9]; day 1
  survival rate of mice, day 1: 100%
[9]; day 2
  survival rate of mice, day 2: 100%
[9]; day 3
  survival rate of mice, day 3: 100%
[9]; day 4
  survival rate of mice, day 4: 100%
[9]; day 5
  survival rate of mice, day 5: 100%
[9]; day 6
  survival rate of mice, day 6: 90%

## CNCc1cccnc1N(C)C(=O)OC(C)[n+]1cnn(C[C@](O)(c2ccc(F)cc2F)[C@@H](C)c2ncncc2F)c1 (stereo partly shown) [QR16023]
[2]; deionized water, 25±2°C
  solubility at 30 min: > 50 mg/mL
[7]
  survival rate of mice, day 1: 100%
  survival rate of mice, day 2: 90%
  survival rate of mice, day 3: 70%
  survival rate of mice, day 4: 70%
  survival rate of mice, day 5: 60%
  survival rate of mice, day 6: 60%
[7]; day 7, 5 mg/kg
  survival rate of mice, day 7: same with the positive drug voriconazole group
[5]
  Content increase of total impurity (25° C., placed for 30 days): 2.63%
[6]
  T1/2: similar

## CC(OC(=O)N(C)c1ncccc1CN)[n+]1cnn(C[C@](O)(c2ccc(F)cc2F)[C@@H](C)c2ncncc2F)c1 (stereo partly shown) [QR16022]
[1]; rat, intestinal S9, pH 7.4, read-out: Rat intestinal S9 T1/2
  half-life at 10 µM: 56 ± 10.3 min
[2]; deionized water, 25±2°C
  solubility at 30 min: > 50 mg/mL
[3]; human, intestinal S9, read-out: Human intestinal S9 T1/2
  half-life at 10 µM: 43.2 ± 1.03 min
[10]
  half-life at 10 µM: 26 ± 2.39 min
[4]; rat, plasma, read-out: Rat plasma T1/2
  half-life at 10 µM: 29.5 ± 7.85 min
[6]
  T1/2: similar
